Measured values taken from the supplement of paper PMC6470124.

How the values were obtained:
[1] = absolute recovery over vacuum-assisted evaporative concentration; higher = better recovery; details: enrichment method: VEC
Summary of the method: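 Water samples (influent 6 mL, effluent 15 mL, surface and nanopure water 60 mL) were spiked with standards before concentration, after concentration or not at all, at 200 ng/L (nanopure/surface) or 1000 ng/L (wastewater), with class- and compound-specific adjustments. They were evaporated at 55 °C and 20 mbar to about 0.3 mL, brought to 0.4 mL and centrifuged. Internal standards were added afterwards and samples were analysed by LC-HRMS/MS. Absolute recovery was (response ratio pre − unspiked)/(post − unspiked) × 100, using averages of ≥ 2 replicates.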

[2] = absolute recovery over mixed-bed multilayer solid-phase extraction; higher = better recovery; details: enrichment method: SPE
Summary of the method: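 Wastewater (100–250 mL, adjusted to pH 6.5 and glass-fibre filtered) or 1000 mL unfiltered nanopure water was loaded on a three-layer mixed-bed cartridge and eluted with basic then acidic ethyl acetate/methanol. Standards were spiked before extraction, after it, or not at all, at 200 ng/L (water) or 1000 ng/L (wastewater), with class exceptions. Internal standards were added afterwards, then LC-HRMS/MS ran in both ionisation modes. Absolute recovery compares background-corrected response ratios of pre- versus post-spiked samples, averaged over at least two replicates.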

[3] = LC retention time (Atlantis T3, 5-95% MeOH gradient, 0.1% formic acid); higher = more retained / less polar
Summary of the method: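 Retention times were recorded for reference standards (purity ≥ 95%) on a polar reversed-phase C18 column (Atlantis T3, 3 × 150 mm, 3 μm) at 0.3 mL/min. Elution used water and methanol, each with 0.1% formic acid, in a gradient from 5 to 95% methanol over 17.5 min. Detection was by high-resolution tandem mass spectrometry on a QExactive Plus, with positive and negative electrospray in separate runs. Peaks were found and integrated in TraceFinder (5 ppm tolerance, at least three points per peak) and then checked by hand.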

| SMILES | absolute recovery ([1]; wastewater effluent) | absolute recovery ([1]; wastewater influent) | absolute recovery ([2]; nanopure water) | absolute recovery ([2]; surface water) | absolute recovery ([2]; wastewater effluent) | absolute recovery ([2]; wastewater influent) | LC retention time [3] |
| --- | --- | --- | --- | --- | --- | --- | --- |
| CN(C)C(=O)Nc1ccc(Cl)c(Cl)c1 [Diuron] | 109% | 103% | 97.7% | 98.5% | 92.1% | 94.1% | 18.8 min |
| COc1ccc(CN(CC[NH+](C)C)c2ccccn2)cc1 [Pyrilamine] | 94% | 99.9% | 83.7% | 87% | 87.3% | 88.2% | 18.4 min |
| CCC1(c2ccccc2)C(=O)NCNC1=O [Primidon] | 103% | 98.5% | 94.9% | 92.4% | 88.6% | 92.9% | 14.5 min |
| Cc1ncc([N+](=O)[O-])n1CCO [Metronidazol] | 102% | 102% | 95.6% | 91.3% | 87.1% | 95.9% | 10 min |
| C[NH2+]CCC(Oc1ccccc1C)c1ccccc1 (centres undefined) [Atomoxetin] | 102% | 96.6% | 74.6% | 87% | 79.7% | 94.5% | 15.5 min |
| O=C1C(Cl)C(CCl)CN1c1cccc(C(F)(F)F)c1 (centres undefined) [Flurochloridon] | 92% | 60.5% | 98.1% | 104% | 106% | 98% | 19.9 min |
| CC(C1CC1)C(O)(Cn1cncn1)c1ccc(Cl)cc1 (centres undefined) [Cyproconazol] | 92.9% | 95.8% | 99.4% | 88.2% | 87.6% | 93.5% | 20.1 min |
| O=C([O-])C(F)(F)C(F)(F)C(F)(F)F [PFBA] | 96.7% | 86.3% | 95.9% | 42.8% | 90.2% | 84.9% | 18.6 min |
| COC=C(C(=O)[O-])c1ccccc1Oc1cc(Oc2ccccc2C#N)ncn1 [Azoxystrobin-acid] | 101% | 97.7% | 96.4% | 92.6% | 93.5% | 99.1% | 18 min |
| COc1ccc2cc(C(C)C(=O)[O-])ccc2c1 (centres undefined) [Naproxen] | 109% |  | 96.1% | 96.5% | 92.8% |  | 19.3 min |
| C#CC[NH2+]C(C)Cc1ccccc1 (centres undefined) [Nordeprenyl] | 38.9% | 11.4% | 74.8% | 84.7% | 80.2% | 78.3% | 11.5 min |
| CC(C)[NH2+]CC(O)COc1ccc(CC(N)=O)cc1 (centres undefined) [Atenolol] | 107% | 103% | 92.1% | 92.6% | 87.4% | 90.6% | 8.64 min |
| CC(C)Nc1nc(N)nc(Cl)n1 [Atrazin-Desethyl] | 102% | 101% | 92.5% | 96.9% | 92.1% | 91.6% | 15.3 min |
| N#CC1CCCN1C(=O)C[NH2+]C12CC3CC(CC(O)(C3)C1)C2 (centres undefined) [Vildagliptin] | 105% | 102% | 92.8% | 94.1% | 92.8% | 93.2% | 8.73 min |
| Cn1nnc2ccccc21 [1-Methyl-Benzotriazol] | 83.9% | 82.1% | 89.4% | 93.1% | 88.8% | 103% | 14 min |
| COCCN(C(=O)CCl)c1c(C)cccc1C [Dimethachlor] | 94.3% | 97.7% | 93% | 89.9% | 89.6% | 95.7% | 18.8 min |
| CC(C)(C(=O)[O-])c1ccc(C(O)CCC[NH+]2CCC(C(O)(c3ccccc3)c3ccccc3)CC2)cc1 (centres undefined) [Fexofenadin] | 105% | 101% | 97% | 99.3% | 91.4% | 101% | 15.7 min |
| Cc1cc(Cl)ccc1OC(C)C(=O)[O-] (centres undefined) [Mecoprop] | 101% | 99% | 100% | 99.2% | 94.9% | 94.2% | 20 min |
| CC1(C)SC(CNC(=O)C([NH3+])c2ccc(O)cc2)[NH2+]C1C(=O)[O-] (centres undefined) [Amoxicillin-EP-Impurity-E] | 59.2% | 96.9% |  | 12.2% | 17.8% | 30.7% | 9.5 min |
| N#CCNC(=O)c1cnccc1C(F)(F)F [Flonicamid] | 99.6% | 106% | 96.3% | 101% | 99.5% | 96% | 12.2 min |
| CC(C)c1ccc(NC(N)=O)cc1 [Isoproturon-didemethyl (=1-(4-Isoprophenyl)urea)] | 102% | 103% | 99.9% | 94.1% | 95.4% | 95.4% | 17.7 min |
| CC(Oc1ccc(Oc2ccc(C(F)(F)F)cn2)cc1)C(=O)[O-] (centres undefined) [Fluazifop] | 101% | 102% | 99.5% | 96.8% | 96.6% | 98% | 19.7 min |
| Nc1ccc(S(=O)(=O)[N-]c2nccs2)cc1 [Sulfathiazol] | 99.3% | 90.4% | 92.4% | 91.4% | 83.6% | 93.6% | 10.4 min |
| CN1CCN(C)C1=O [1-3-Dimethyl-2-imidazolidinon] | 96.5% | 104% | 26% | 29.7% | 29.2% | 56.1% | 10.1 min |
| c1ccc2c(c1)Cc1ccccc1N1CC[NH2+]CC21 (centres undefined) [Normianserin] | 94.1% | 84.1% | 79.1% | 95.2% | 83.6% | 85.6% | 14.8 min |
| CC(C)(C)C(=O)C(Oc1ccc(Cl)cc1)n1ccnc1 (centres undefined) [Climbazol] | 106% | 101% | 98.6% | 96.1% | 91.7% | 90.1% | 16.5 min |
| NC(=O)N1c2ccccc2C=Cc2ccccc21 [Carbamazepin] | 104% | 98.2% | 99% | 97.8% | 93.5% | 93.2% | 17.6 min |

| SMILES | absolute recovery ([1]; wastewater effluent) | absolute recovery ([1]; wastewater influent) | absolute recovery ([2]; nanopure water) | absolute recovery ([2]; surface water) | absolute recovery ([2]; wastewater effluent) | absolute recovery ([2]; wastewater influent) | LC retention time [3] |
| --- | --- | --- | --- | --- | --- | --- | --- |
| CCNc1nc(Cl)nc(NC(C)C)n1 [Atrazin] | 99.3% | 97.7% | 96.7% | 98.1% | 93.8% | 91.5% | 18.5 min |
| O=C([O-])Cc1ccccc1Nc1c(Cl)cc(O)cc1Cl [4-Hydroxydiclofenac A] | 95.8% | 92.8% | 73.5% | 81.4% | 76.2% | 83.3% | 19.2 min |
| [NH3+]CC1(CC(=O)[O-])CCCCC1 [Gabapentin] | 99.5% | 98.3% | 20.3% |  |  |  | 10.4 min |
| COc1ccc(C(=CC(=O)N2CCOCC2)c2ccc(Cl)cc2)cc1OC [Dimethomorph] | 116% | 95.7% | 98.4% | 81.4% | 81.4% | 91.4% | 19.5 min |
| CS(=O)(=O)c1ccc(C(=O)[C-]2C(=O)CCCC2=O)c(Cl)c1 [Sulcotrion] | 103% | 101% | 97.7% | 93.4% | 94.8% | 93.9% | 16.7 min |
| C[NH+]1C2CCC1C(C(=O)[O-])C(OC(=O)c1ccccc1)C2 (centres undefined) [Benzoylecgonin] | 120% | 110% | 97.8% | 96% | 94.8% | 95.1% | 12.8 min |
| CCNc1nc(Cl)nc(NCC)n1 [Simazin] | 98.3% | 106% | 94.2% | 94.4% | 88.3% | 94.9% | 17.2 min |
| O=C1CC(C(=O)[O-])CC(=O)C1=C([O-])C1CC1 (centres undefined) [Trinexapac (free acid)] | 108% | 93% | 76.1% | 36.1% | 78.5% | 77% | 16.6 min |
| Cc1c(N(C)C)c(=O)n(-c2ccccc2)n1C [4-Dimethylaminoantipyrin (=Aminopyrin)] | 89.8% | 92.9% | 72.8% | 79.5% | 77% | 88.2% | 9.33 min |
| NC(=O)c1cn(Cc2c(F)cccc2F)nn1 [Rufinamid] | 98.5% | 104% | 122% | 101% | 100% | 92.3% | 14 min |
| CC=C1[NH+](C)C(C)CC1(c1ccccc1)c1ccccc1 (centres undefined) [EDDP (=2-Ethylidene-1-5-dimethyl-3-3-diphenylpyrrolidin)] | 95% | 82.3% | 33.8% | 65% | 60.2% | 75.8% | 14.4 min |
| Cc1ccc(C(C)NC(=O)C(NC(=O)OC(C)C)C(C)C)cc1 (centres undefined) [Iprovalicarb] | 89.8% | 92.3% | 96.4% | 85.1% | 85.2% | 98.8% | 20.1 min |
| COc1cc(C)c(C(=O)c2c(OC)ccc(Br)c2C)c(OC)c1OC [Metrafenone] | 84.4% | 101% | 103% | 92.4% | 85.4% | 117% | 21.4 min |
| N#CN=C1SCCN1Cc1ccc(Cl)nc1 [Thiacloprid] | 102% | 106% | 97.8% |  | 96.9% | 87.5% | 15.1 min |
| COc1c(C)c2c(c(O)c1CC=C(C)CCC(=O)[O-])C(=O)OC2 [Mycophenolic-Acid] | 103% |  | 99.6% | 97.1% | 100% |  | 18.9 min |
| CCNc1nc(O)nc(NCC)n1 [Simazin-2-hydroxy] | 105% | 107% | 84.5% | 78.7% | 88.3% | 82.7% | 10.1 min |
| CCOP(=S)(OCC)Oc1cc(C)nc(C(C)C)n1 [Diazinon] | 27.1% | 18.9% | 77.6% | 86.9% | 80.5% | 82.8% | 21.1 min |
| NC(=O)c1ncn(C2OC(CO)C(O)C2O)n1 (centres undefined) [Ribavirin] | 87% | 67.6% | 33.5% | 30.5% | 33.2% | 37% | 4.79 min |
| CC12CCC(=O)C=C1CCC1C2C(=O)CC2(C)C1CCC2(O)C(=O)CO (centres undefined) [Cortison] | 99.8% | 54.6% | 74.9% | 75.6% | 74.8% | 95.2% | 17.5 min |
| CC([NH2+]C(C)(C)C)C(=O)c1cccc(Cl)c1 (centres undefined) [Bupropion] | 51.1% | 31.5% | 79.1% | 78% | 74.3% | 78.3% | 13.5 min |
| CCNc1nc(O)nc(NC(C)C)n1 [Atrazin-2-Hydroxy] | 102% | 102% | 97.8% | 98% | 94.5% | 90% | 11.4 min |
| CN(C)S(=O)(=O)Nc1ccccc1 [DMSA (=N-N-Dimethylaminosulfanilid)] | 100% | 95.6% | 100% | 95.5% | 89.9% | 136% | 15.9 min |
| NC(=O)N1c2ccccc2C2OC2c2ccccc21 (centres undefined) [Carbamazepin-10-11-epoxid] | 105% | 102% | 96.6% | 97.3% | 94.8% | 92.2% | 15.7 min |
| CC(C)N(C(=O)CCl)c1ccccc1 [Propachlor] | 83.8% | 76.9% | 84.3% | 87% | 81.1% | 93.3% | 18.4 min |
| Nc1ccn(C2OC(CO)C(O)C2(F)F)c(=O)n1 (centres undefined) [Gemcitabin] | 88.8% | 12.8% | 86.7% | 94.5% | 94.3% | 91.1% | 6.58 min |
| NS(=O)(=O)Cc1noc2ccccc12 [Zonisamide] | 103% | 101% | 84.8% | 88.8% | 88.4% | 107% | 13.1 min |
| CCNc1nc(N)nc(Cl)n1 [Atrazin-Desisopropyl] | 102% | 103% | 93.4% | 93.3% | 91.3% | 94.6% | 13.4 min |
